# “Also recorded” adds a separate entry of the source. Like-named read-outs stand apart in the source and are kept apart here.
# Legend:
# [1] = tested on: S. aureus USA300 ureC::tn; test: Galleria mellonella infection model; assay type: in vivo; conditions: for survival curve event per larva: S. aureus ureC::Tn + 7.5 μg/mL Zn-AMA, one cell per larva
# Experimental: The cell suspensions were mixed at an equal volume of 300 μg/mL Zn-AMA before injection. The larvae were each injected with 10 μL ([…]) of bacterial suspension with and without Zn-AMA or PBS. Ten larvae were used per group, incubated at 30 °C, and monitored on a 24-hour cycle. Fresh G. mellonella larvae were obtained from The Dragon Lair (www.thedragonlair.ca).
# [2] = tested on: K. pneumoniae urease activity (whole cell); test: Checkerboard analysis of Zn-AMA and AHA on urease activity; assay type: cell-based, Klebsiella pneumoniae
# Experimental: To guide our exploration of the mode of action of Zn-AMA, we investigated whether a chemical-chemical interaction occurs with the urease inhibitor AHA. […] We subsequently performed inductively coupled plasma mass spectrometry (ICP-MS) analyses to evaluate the intracellular Ni^2+ and Zn^2+ content of K. pneumoniae.
# K. pneumoniae whole-cell urease activity was determined with artificial urine containing 0.2% (w/v) casamino acids and 0.01% (w/v) phenol red in 96-well plates. For the growth of S. aureus in artificial urine, the medium was supplemented with 10% LB. After 20–24 hours of growth, bacteria were removed using 0.45 μm filter plates, and the final A550 of the medium was measured using a plate reader.
# FIG S7 Evaluation of Zn-AMA as a direct inhibitor of urease. A) Checkerboard analysis of Zn-AMA and AHA on urease activity of K.
# pneumoniae after growth for 24 h at 37 °C artificial urine. pH is represented by the color scale determined with phenol red. […]
# [3] = read-out: KD for Zn^2+; cited from earlier work
# [4] = AMA affinity for Zn2+; assay type: binding; conditions: PAR-based competition assay, authors' reply to reviewer; read-out: Kd for Zn (typical drift)
smiles,measurement,setting,value
N[C@@H](CN[C@@H](CN[C@@H](CC(=O)O)C(=O)O)C(=O)O)C(=O)O.[Zn+2] [Zn-AMA],G. mellonella larvae survival,"[1]; S. aureus USA300 ureC::tn infection, 7.5 mg/kg",no effect on the survival; also recorded: no significant survival benefit
same,survival curve event per larva,[1]; day 1 post infection,1
same,survival curve event per larva,[1]; day 2 post infection,1
same,survival curve event per larva,[1]; day 3 post infection,1
same,survival curve event per larva,[1]; day 5 post infection,1
same,Urease-dependent pH change (pH),"[2]; Zn-AMA 0.39 μM, AHA 0 mM",8.26
same,Urease-dependent pH change (pH),"[2]; Zn-AMA 0.39 μM, AHA 0.1 mM",8.14
same,Urease-dependent pH change (pH),"[2]; Zn-AMA 0.39 μM, AHA 0.2 mM",8.05
same,Urease-dependent pH change (pH),"[2]; Zn-AMA 0.39 μM, AHA 0.4 mM",7.76
same,Urease-dependent pH change (pH),"[2]; Zn-AMA 0.39 μM, AHA 0.5 mM",8.22
same,Urease-dependent pH change (pH),"[2]; Zn-AMA 0.39 μM, AHA 0.8 mM",7.29
same,Urease-dependent pH change (pH),"[2]; Zn-AMA 0.39 μM, AHA 1.6 mM",6.70
same,Urease-dependent pH change (pH),"[2]; Zn-AMA 0.78 μM, AHA 0 mM",8.08
same,Urease-dependent pH change (pH),"[2]; Zn-AMA 0.78 μM, AHA 0.1 mM",7.95
same,Urease-dependent pH change (pH),"[2]; Zn-AMA 0.78 μM, AHA 0.2 mM",7.81
same,Urease-dependent pH change (pH),"[2]; Zn-AMA 0.78 μM, AHA 0.4 mM",7.50
same,Urease-dependent pH change (pH),"[2]; Zn-AMA 0.78 μM, AHA 0.5 mM",8.01
same,Urease-dependent pH change (pH),"[2]; Zn-AMA 0.78 μM, AHA 0.8 mM",7.03
same,Urease-dependent pH change (pH),"[2]; Zn-AMA 0.78 μM, AHA 1.6 mM",6.68
same,Urease-dependent pH change (pH),"[2]; Zn-AMA 1.56 μM, AHA 0 mM",7.83
same,Urease-dependent pH change (pH),"[2]; Zn-AMA 1.56 μM, AHA 0.1 mM",7.46
same,Urease-dependent pH change (pH),"[2]; Zn-AMA 1.56 μM, AHA 0.2 mM",7.19
same,Urease-dependent pH change (pH),"[2]; Zn-AMA 1.56 μM, AHA 0.4 mM",6.86
same,Urease-dependent pH change (pH),"[2]; Zn-AMA 1.56 μM, AHA 0.5 mM",7.51
same,Urease-dependent pH change (pH),"[2]; Zn-AMA 1.56 μM, AHA 0.8 mM",6.64
same,Urease-dependent pH change (pH),"[2]; Zn-AMA 1.56 μM, AHA 1.6 mM",6.51
same,Urease-dependent pH change (pH),"[2]; Zn-AMA 3.12 μM, AHA 0 mM",7.23
same,Urease-dependent pH change (pH),"[2]; Zn-AMA 3.12 μM, AHA 0.1 mM",6.85
same,Urease-dependent pH change (pH),"[2]; Zn-AMA 3.12 μM, AHA 0.2 mM",6.78
same,Urease-dependent pH change (pH),"[2]; Zn-AMA 3.12 μM, AHA 0.4 mM",6.74
same,Urease-dependent pH change (pH),"[2]; Zn-AMA 3.12 μM, AHA 0.5 mM",6.97
same,Urease-dependent pH change (pH),"[2]; Zn-AMA 3.12 μM, AHA 0.8 mM",6.56
same,Urease-dependent pH change (pH),"[2]; Zn-AMA 3.12 μM, AHA 1.6 mM",6.46
same,Urease-dependent pH change (pH),"[2]; Zn-AMA 6.25 μM, AHA 0 mM",6.63
same,Urease-dependent pH change (pH),"[2]; Zn-AMA 6.25 μM, AHA 0.1 mM",6.57
same,Urease-dependent pH change (pH),"[2]; Zn-AMA 6.25 μM, AHA 0.2 mM",6.55
same,Urease-dependent pH change (pH),"[2]; Zn-AMA 6.25 μM, AHA 0.4 mM",6.53
same,Urease-dependent pH change (pH),"[2]; Zn-AMA 6.25 μM, AHA 0.5 mM",6.62
same,Urease-dependent pH change (pH),"[2]; Zn-AMA 6.25 μM, AHA 0.8 mM",6.47
same,Urease-dependent pH change (pH),"[2]; Zn-AMA 6.25 μM, AHA 1.6 mM",6.42
same,Urease-dependent pH change (pH),"[2]; Zn-AMA 12.5 μM, AHA 0 mM",6.63
same,Urease-dependent pH change (pH),"[2]; Zn-AMA 12.5 μM, AHA 0.1 mM",6.46
same,Urease-dependent pH change (pH),"[2]; Zn-AMA 12.5 μM, AHA 0.2 mM",6.52
same,Urease-dependent pH change (pH),"[2]; Zn-AMA 12.5 μM, AHA 0.4 mM",6.45
same,Urease-dependent pH change (pH),"[2]; Zn-AMA 12.5 μM, AHA 0.5 mM",6.47
same,Urease-dependent pH change (pH),"[2]; Zn-AMA 12.5 μM, AHA 0.8 mM",6.43
same,Urease-dependent pH change (pH),"[2]; Zn-AMA 12.5 μM, AHA 1.6 mM",6.40
same,interaction with AHA (checkerboard),[2]; combination of Zn-AMA and AHA,synergistic
"N[C@@H](CN[C@@H](CN[C@@H](CC(=O)O)C(=O)O)C(=O)O)C(=O)O [AMA, aspergillomarasmine A]",Kd,[3],0.2 nM
same,Kd,[4],0.1 to 0.2 nM
